According to US20250066348A1, “SMALL MOLECULE INHIBITORS OF UBIQUITIN SPECIFIC PROTEASE 1 (USP1) AND USES THEREOF” (INSILICO MEDICINE IP LIMITED, priority 2021, published 2025):

Tests used:
[1] = biological target: T1, Human recombinant USP1/UAF1 (Homo sapiens, UniProt O94782); assay: Enzymatic assay, USP1/UAF1 with Ubiquitin Rhodamine 110; type: biochemical; details: 2 nM USP1/UAF1, 500 nM Ubiquitin Rhodamine 110, HEPES buffer pH 8.0, 15 minutes preincubation at RT
T1 construct: purchased R&D E-568-050; host or cells: baculovirus infected Sf21 cells
T1 sequence (O94782 whole entry): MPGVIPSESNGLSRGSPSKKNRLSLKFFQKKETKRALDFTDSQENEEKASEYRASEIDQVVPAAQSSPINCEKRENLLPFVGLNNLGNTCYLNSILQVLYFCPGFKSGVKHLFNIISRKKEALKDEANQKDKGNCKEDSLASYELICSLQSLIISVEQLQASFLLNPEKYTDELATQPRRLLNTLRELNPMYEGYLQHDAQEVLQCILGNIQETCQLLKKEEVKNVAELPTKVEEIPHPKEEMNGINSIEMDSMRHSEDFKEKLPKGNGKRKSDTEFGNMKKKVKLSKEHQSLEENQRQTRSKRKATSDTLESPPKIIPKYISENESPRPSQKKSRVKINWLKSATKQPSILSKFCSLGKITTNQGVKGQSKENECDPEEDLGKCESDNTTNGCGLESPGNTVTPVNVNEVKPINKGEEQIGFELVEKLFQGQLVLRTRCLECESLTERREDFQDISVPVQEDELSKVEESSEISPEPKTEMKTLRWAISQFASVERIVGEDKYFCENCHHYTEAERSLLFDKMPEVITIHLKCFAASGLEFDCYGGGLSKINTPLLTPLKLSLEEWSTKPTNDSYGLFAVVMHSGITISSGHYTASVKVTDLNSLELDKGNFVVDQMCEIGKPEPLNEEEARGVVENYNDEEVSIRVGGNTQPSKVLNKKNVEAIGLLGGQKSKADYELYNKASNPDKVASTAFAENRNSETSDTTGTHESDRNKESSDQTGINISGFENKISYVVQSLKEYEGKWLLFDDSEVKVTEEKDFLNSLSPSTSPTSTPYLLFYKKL
T1 sequence (Q8TAF3 whole entry partner): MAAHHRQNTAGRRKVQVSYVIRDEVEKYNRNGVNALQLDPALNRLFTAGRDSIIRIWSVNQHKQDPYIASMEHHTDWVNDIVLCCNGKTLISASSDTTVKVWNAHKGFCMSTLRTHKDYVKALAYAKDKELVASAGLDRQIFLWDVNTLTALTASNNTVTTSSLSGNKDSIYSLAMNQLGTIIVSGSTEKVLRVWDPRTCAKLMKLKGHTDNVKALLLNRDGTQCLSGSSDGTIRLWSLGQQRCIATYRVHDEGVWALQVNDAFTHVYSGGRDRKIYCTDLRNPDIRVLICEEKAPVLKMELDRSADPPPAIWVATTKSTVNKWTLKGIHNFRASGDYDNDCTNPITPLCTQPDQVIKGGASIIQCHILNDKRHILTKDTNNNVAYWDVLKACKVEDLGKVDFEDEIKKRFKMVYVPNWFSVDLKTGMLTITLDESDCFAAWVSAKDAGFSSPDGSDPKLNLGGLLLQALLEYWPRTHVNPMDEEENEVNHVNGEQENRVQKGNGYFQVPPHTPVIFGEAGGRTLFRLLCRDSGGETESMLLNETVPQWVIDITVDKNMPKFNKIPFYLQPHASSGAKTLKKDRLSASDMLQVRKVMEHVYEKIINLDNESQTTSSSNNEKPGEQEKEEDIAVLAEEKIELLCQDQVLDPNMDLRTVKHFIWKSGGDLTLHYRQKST
Procedure: Human recombinant USP1/UAF1 expressed in baculovirus infected Sf21 cells were used (R&D, E-568-050). Test compound and/or vehicle was incubated with 2 nM of USP1/UAF1 in modified HEPES buffer pH 8.0 for 15 minutes at RT. The reaction was initiated by addition of 500 nM of Ubiquitin Rhodamine 110 (R&D, U-555-050) for kinetic reading. Slope change of fluorescence intensity was read spectrofluorimetrically at 485 nm/535 nm. Dose response of test compounds or reference compound ML-323 was analyzed by nonlinear regression of GraphPad prism software.

MDA-MB-436 cells = assay: MDA-MB-436 breast cancer cell proliferation assay (CellTiter-Glo); type: cell-based; details: Homo sapiens, 168 h, 7 days
Procedure: MDA-MB-436 cells were grown in Leibovitz's L-15 medium with 10 μg/ml insulin, 16 μg/ml glutathione, 10% FBS. Cells were passaged at subconfluence after trypsinization and maintained in incubators at 37° C. in a humidified atmosphere with 5% CO2.
Cell proliferation was determined using CellTiter-Glo® Luminescent Cell Viability Assay (Promega, #G7573). MDA-MB-436 cells were seeded in 384-well plates and allowed to attach for 24 h. Compounds were added into 384-well plate by ECHO, and incubated at 37 C° in a humidified atmosphere with 5% CO2. After 7 days, CellTiter-Glo was added into 384 well plates, contents were mixed on an orbital shaker at […] for 2 min before centrifuging the plate for 2 min at 1000 rpm. After incubation at RT for 30 min, luminescence was read on envision.

Row | SMILES | IC50 [1] [nM] | IC50 (MDA-MB-436 cells) [nM]
1 | COc1ncnc(C2CC2)c1-c1cn2c(Cc3ccc(-n4nc(C(F)(F)F)cc4C)cc3)ncc2cn1 [Example 2, 6-(4-cyclopropyl-6-methoxypyrimidin-5-yl)-3-(4-(5-methyl-3-(trifluoromethyl)-1H-pyrazol-1-yl)benzyl) imidazo[1,5-a]pyrazine] | 50 to 1000 | 50 to 1000
2 | COc1ncnc(C2CC2)c1-c1cc2c(cnn2Cc2ccc(-n3nc(C(F)(F)F)cc3C)cc2)nn1 [Example 4, 6-(4-cyclopropyl-6-methoxypyrimidin-5-yl)-1-(4-(5-methyl-3-(trifluoromethyl)-1H-pyrazol-1-yl)benzyl)-1H-pyrazolo[4,3-c]pyridazine] | 1000 to 10000 | 
3 | COc1ncnc(C2CC2)c1-c1cn2c(Cc3ccc(-n4nc(C(F)(F)F)cc4C)cc3)nnc2cn1 [Example 5, 6-(4-cyclopropyl-6-methoxypyrimidin-5-yl)-3-(4-(5-methyl-3-(trifluoromethyl)-1H-pyrazol-1-yl)benzyl)-[1,2,4]triazolo[4,3-a]pyrazine] | 1000 to 10000 | > 10000
4 | COc1ncnc(C2CC2)c1-c1cnc2cnc(Cc3ccc(-n4nc(C(F)(F)F)cc4C)cc3)n2c1 [Example 6, 3-(4-cyclopropyl-6-methoxypyrimidin-5-yl)-6-(4-(5-methyl-3-(trifluoromethyl)-1H-pyrazol-1-yl)benzyl)imidazo[1,5-a]pyrimidine] | > 10000 | 
5 | COc1ncnc(C2CC2)c1-c1ncc2cnn(CC34C5C6C3C3C4C5C63c3nc(C(F)(F)F)cn3C)c2n1 (stereo not drawn) [Example 10, 6-(4-cyclopropyl-6-methoxypyrimidin-5-yl)-1-((4-(1-methyl-4-(trifluoromethyl)-1H-imidazol-2-yl)cuban-1-yl)methyl)-1H-pyrazolo[3,4-d]pyrimidine] | < 50 | < 50
6 | COc1ncnc(C2CC2)c1-c1ncc2cnn(CC34C5C6C3C3C4C5C63c3nc(C(F)(F)F)cn3C(C)C)c2n1 (stereo not drawn) [Example 11, 6-(4-cyclopropyl-6-methoxypyrimidin-5-yl)-1-((4-(1-isopropyl-4-(trifluoromethyl)-1H-imidazol-2-yl)cuban-1-yl)methyl)-1H-pyrazolo[3,4-d]pyrimidine] | < 50 | < 50
7 | COc1ncnc(C2CC2)c1-c1cc2c(cn1)cnn2Cc1ccc(-n2nc(C(F)(F)F)cc2C)nc1 [Example 12, 6-(4-cyclopropyl-6-methoxypyrimidin-5-yl)-1-((6-(5-methyl-3-(trifluoromethyl)-1H-pyrazol-1-yl)pyridin-3-yl)methyl)-1H-pyrazolo[4,3-c]pyridine] | 50 to 1000 | 

Continued, values first:

Row | IC50 [1] [nM] | IC50 (MDA-MB-436 cells) [nM] | SMILES
8 | < 50 | 50 to 1000 | COc1ncnc(C2CC2)c1-c1cc2c(cn1)cnn2Cc1ccc(-n2nc(C(F)(F)F)cc2C)cc1 [Example 1, 6-(4-cyclopropyl-6-methoxypyrimidin-5-yl)-1-(4-(5-methyl-3-(trifluoromethyl)-1H-pyrazol-1-yl)benzyl)-1H-pyrazolo[4,3-c]pyridine]
9 | 1000 to 10000 | 1000 to 10000 | COc1ncnc(C2CC2)c1-c1cnc2cnn(Cc3ccc(-n4nc(C(F)(F)F)cc4C)cc3)c2n1 [Example 3, 6-(4-cyclopropyl-6-methoxypyrimidin-5-yl)-1-(4-(5-methyl-3-(trifluoromethyl)-1H-pyrazol-1-yl)benzyl)-1H-pyrazolo[3,4-b]pyrazine]
10 | 50 to 1000 | 50 to 1000 | COc1ncnc(C2CC2)c1-c1ncc2c(=O)n(C)n(Cc3ccc(-n4nc(C(F)(F)F)cc4C)cc3)c2n1 [Example 7, 6-(4-cyclopropyl-6-methoxypyrimidin-5-yl)-2-methyl-1-(4-(5-methyl-3-(trifluoromethyl)-1H-pyrazol-1-yl)benzyl)-1,2-dihydro-3H-pyrazolo[3,4-d]pyrimidin-3-one]
11 | 50 to 1000 | 50 to 1000 | COc1ncnc(C2CC2)c1-c1ncc2oc(=O)n(Cc3ccc(-n4nc(C(F)(F)F)cc4C)cc3)c2n1 [Example 8, 5-(4-cyclopropyl-6-methoxypyrimidin-5-yl)-3-(4-(5-methyl-3-(trifluoromethyl)-1H-pyrazol-1-yl)benzyl) oxazolo[4,5-d]pyrimidin-2 (3H)-one]
12 | 50 to 1000 | 50 to 1000 | COc1ncnc(C2CC2)c1-c1ncc2[nH]c(=S)n(Cc3ccc(-n4nc(C(F)(F)F)cc4C)cc3)c2n1 [Example 9, 2-(4-cyclopropyl-6-methoxypyrimidin-5-yl)-9-(4-(5-methyl-3-(trifluoromethyl)-1H-pyrazol-1-yl)benzyl)-7,9-dihydro-8H-purine-8-thione]
